Here are results for 6 compounds from patent US20100292135A1 (priority 2005, published 2010).

One may read the Kd as the constant that tells how readily two partners part at equilibrium. A low value points to tighter binding.

Experiment [1] addresses T1, RecA protein (Escherichia coli, UniProt P0A7G6). Put plainly: biochemical. In kind it is binding, E. coli.
For experiment [2], the target named is T1, RecA protein. In kind it is biochemical, E. coli.
The test system of experiment [3] is RecA-dependent SOS induction in GY7313 cells. The experiment is described as follows: SOS induction by MMC in permeabilized E. coli (sfi-lacZ reporter, β-galactosidase). It is filed as cell-based. The conditions noted are these: MMC-induced.
Experiment [4] deals with wild type (AB1157) bacteria. Put plainly: Development of chloramphenicol resistance (mean latency time, OD600 growth). It is filed as cell-based. The conditions noted are these: in the presence of RecA.
The target in experiment [5] is T1, RecA protein. The conditions noted are these: cited from earlier work.

T1 sequence (P0A7G6 2-353): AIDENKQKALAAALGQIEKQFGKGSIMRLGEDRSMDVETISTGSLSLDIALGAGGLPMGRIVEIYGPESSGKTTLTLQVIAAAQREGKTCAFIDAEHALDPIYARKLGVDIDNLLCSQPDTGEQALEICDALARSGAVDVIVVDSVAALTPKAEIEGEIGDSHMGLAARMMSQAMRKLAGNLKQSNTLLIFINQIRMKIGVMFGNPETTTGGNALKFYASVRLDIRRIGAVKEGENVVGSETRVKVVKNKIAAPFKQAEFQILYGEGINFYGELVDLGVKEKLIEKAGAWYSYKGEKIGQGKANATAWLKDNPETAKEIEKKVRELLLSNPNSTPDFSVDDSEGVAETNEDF

As for `Nc1ncnc2c1ncn2[C@@H]1O[C@H](COP(=O)(O)OP(=O)(O)O)[C@@H](O)[C@H]1O` [ADP, adenosine diphosphate], the Kd on RecA protein [1] came to 84 ± 27 µM.

For `O[C@@H](CS)[C@@H](O)CS` [L-DTT, 1,4-dithio-L-threitol], the “inhibition of RecA ATPase activity (in words)” value against RecA protein [2] is on record as “no inhibition”.

As to `O=P(O)(O)OP(=O)(O)OC[C@H]1O[C@@H](n2cnc3c(Nc4cccc5ccccc45)ncnc32)[C@H](O)[C@@H]1O` [Compound 1, N^6-(1-Naphthyl)-Adenosine-5′-O-Diphosphate], in experiment [3], the “inhibition of SOS induction (β-galactosidase)” value was “significantly inhibits SOS induction”.

Consider `NCCCCNCCCN` [spermidine], for which the “effect on chloramphenicol resistance development” value in experiment [4] is given as “retards resistance development”.

For `Nc1ncnc2c1ncn2[C@@H]1O[C@H](COP(=O)(O)OP(=O)(O)OP(=O)(O)O)[C@@H](O)[C@H]1O` [ATP, adenosine triphosphate], on RecA protein [2], the “Hill coefficient nH” value is reported as 3; the “Michaelis constant S0.5 for RecA and ATP” value is 47 µM. For the same compound, the “S0.5 for ATP, reported literature values” at RecA protein [5] was 40 to 45 µM.

With `CCOS(C)(=O)=O` [EMS], the “effect on chloramphenicol resistance development” value in experiment [4] is on record as “speed resistance development”.
